Measured values published in US11578315B2, “Truncated guinea pig L-asparaginase variants and methods of use” (THE BOARD OF TRUSTEES OF THE UNIVERSITY OF ILLINOIS, priority 2017, dated 2023).
“And” between values parts separate entries of the source, which are not always exact repeats. Equal values may be shown once.

Legend:
[1] = test system: hN-gC, chimera of human hASNase1 N-terminal domain (residue 1-361) and guinea pig gpASNase1 C-terminal domain (residue 360-565), SEQ ID NO:38; experiment: L-asparaginase kinetics, NADH-dependent enzyme-coupled assay; type: biochemical; conditions: pH 7.5, 37° C.
Excerpt: (§1) To build the clone hN-gC, the sequence corresponding to the N-terminal domain of hASNase1 (hN, residue 1-361) was amplified using the primers NdeI-hA_F1 and gpA360-367_R and the sequence corresponding to the C-terminal domain of gpASNase1 (gC, residue 360-565) was amplified using the primers hA354-361_F and gpA-BamHI_R565. To build the clone gN-hC the sequence corresponding to the N-terminal domain of gpASNase1 (gN, residue 1-359) was amplified using the primers NdeI-gpA_F1 and hA362-369_R and the sequence corresponding to the C-terminal domain of hASNase1 (hC, residue 362-573) was amplified using the primers gpA352-359_F and hA_BamHI_R573. The chimera was then constructed by PCR fusion of fragment hN and gC or gN and hC using the appropriate primers and then subsequently cloned into the pBAD and pET vectors.
(§2) The catalytic activity of the clones was determined using a spectroscopic NADH-dependent enzyme-coupled assay (Fernandez, et al. (2013) Int. J. Clin. Exp. Med. 6:478-487; Hejazi, et al. (2002) Biochem. J. 364:129-136), which measures the production of L-aspartic acid (Asp) through the 1:1 oxidation of reduced NADH. The conversion of NADH to NAD was measured spectrophotometrically as a decrease in absorbance at 340 nm at 37° C. All measurements were taken in triplicate in a buffer containing 100 mM Tris pH 7.5, 0.4 mM α-ketoglutarate and 0.4 mM NADH with 50 nM (hASNase1, hN-gC); 10 nM (gpASNase1, gN-hC, 63-hC, 64-hC, 65-hC, SA-hC) or 3 nM (ansB) enzyme. Glutamic-oxalacetic transaminase (Sigma) and malic dehydrogenase (Sigma) were helper enzymes for the coupled enzymatic reactions; 5 and 1 unit were used, respectively. Data were fit to the Michaelis-Menten equation using SigmaPlot (Systat Software Inc). Due to the cooperative nature of hASNase1, this enzyme was analyzed using the Hill equation.
(§3) Accordingly, two chimeras were generated; one, which was referred to as hN-gC and included the human N-terminal domain fused to the guinea pig C-terminal domain, and the second, which was referred to as gN-hC and included the guinea pig N-terminal domain fused to the human C-terminal domain (FIG. 1, Table 3). In vitro kinetic characterization of these chimeras validated the prediction, with hN-gC displaying kinetic properties similar to hASNase1 and gN-hC displaying kinetic properties similar to gpASNase1 (Table 4).

[2] = test system: gN-hC, chimera of guinea pig gpASNase1 N-terminal domain (residue 1-359) and human hASNase1 C-terminal domain (residue 362-573), SEQ ID NO:37; experiment: as above; type: biochemical; conditions: pH 7.5, 37° C.
Excerpt: as §1, §2, §3

[3] = target: T1, guinea pig L-asparaginase (GpA) variant 20K-PEGylated-GpA369-C198A, SEQ ID NO:51 (Cavia porcellus, UniProt H0W0T5, C198A); experiment: L-asparaginase activity, kobs at 2 mM Asn; type: biochemical; conditions: linear PEG
T1 construct: made in house
Method: as §2
(§4) Each of the variants listed in Table 9 were recombinantly expressed, purified and PEGylated with one or more of mPEG-10K, mPEG-20K and mPEG-40K (Table 10). As determined by SDS-PAGE analysis, the size of the PEGylated enzymes increased with an increase in the number of active cysteines. For example, using maleimide-PEG10K, GpA369(hum)-C198A migrated at a higher molecular weight after PEGylation (due to the extra 10K Da supplied by the PEG), and GpA369(hum)-C198A+R52C migrated at an even higher apparent molecular weight since this variant can react with two PEG molecules (for a total of an extra 20K Da supplied by two 10K molecules linked to the enzyme). Of note, the GpA369-C198A-K225C-E340C-E49C-Q257C mutant was prepared, expressed, purified and PEGylated with mPEG-10K.

[4] = target: T2, guinea pig L-asparaginase (GpA) variant 40K-PEGylated-GpA369-C198A, SEQ ID NO:51 (Cavia porcellus, UniProt H0W0T5, C198A); experiment: L-asparaginase activity, kobs at 2 mM Asn; type: biochemical; conditions: linear PEG
T2 construct: made in house
Method: as §2, §4

[5] = target: T3, guinea pig L-asparaginase (GpA) variant 10K-PEGylated-GpA369-C198A, SEQ ID NO:51 (Cavia porcellus, UniProt H0W0T5, C198A); experiment: L-asparaginase activity, kobs at 2 mM Asn; type: biochemical; conditions: linear PEG
T3 construct: made in house
Method: as §2, §4

[6] = target: T4, E. coli L-asparaginase ansB (type II) (Escherichia coli, UniProt P00805); experiment: L-asparaginase kinetics, NADH-dependent enzyme-coupled assay; type: biochemical; conditions: 50 μM Asn, pH 7.5, 37° C.
T4 construct: made in house
Method: as §2

[7] = target: human L-asparaginase 1 (hASNase1), wild type, SEQ ID NO:2 (Homo sapiens, UniProt Q86U10); experiment: as above; type: biochemical
Method: as §2

[8] = target: T5, guinea pig L-asparaginase (gpASNase1, GpA), wild type, full length (GpA-FL), SEQ ID NO:1 (Cavia porcellus, UniProt H0W0T5); experiment: as above; type: biochemical
T5 construct: Full length GpA (GpA-FL); made in house
T5 sequence (H0W0T5 1-565): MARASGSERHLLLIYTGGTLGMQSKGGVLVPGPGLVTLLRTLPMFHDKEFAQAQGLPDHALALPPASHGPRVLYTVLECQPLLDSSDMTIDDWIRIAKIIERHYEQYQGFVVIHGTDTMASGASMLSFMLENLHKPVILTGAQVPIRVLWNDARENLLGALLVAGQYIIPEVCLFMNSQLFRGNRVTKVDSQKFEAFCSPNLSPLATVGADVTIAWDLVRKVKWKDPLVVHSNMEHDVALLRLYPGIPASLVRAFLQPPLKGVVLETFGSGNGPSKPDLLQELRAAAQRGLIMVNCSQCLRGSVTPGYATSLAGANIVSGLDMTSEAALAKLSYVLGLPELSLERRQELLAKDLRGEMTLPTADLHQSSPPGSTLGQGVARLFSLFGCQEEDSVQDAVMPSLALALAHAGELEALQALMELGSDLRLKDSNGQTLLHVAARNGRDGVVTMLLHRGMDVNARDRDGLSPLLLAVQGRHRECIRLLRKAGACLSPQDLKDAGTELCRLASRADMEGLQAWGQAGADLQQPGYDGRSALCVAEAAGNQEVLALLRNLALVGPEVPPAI
Method: as §2

[9] = test system: 64N-hC, shuffled hASNase1/gpASNase1 clone #64 with human C-terminal domain, SEQ ID NO:40; experiment: as above; type: biochemical, human / guinea pig; conditions: pH 7.5, 37° C.
Method: as §2
(§5) Since the goal was to identify a clone with gpASNase1 kinetic properties but with the highest sequence homology to hASNase1, the four clones, #63, #64, #65 and # SA, were engineered by replacing their shuffled C-terminal domain with the exact sequence of the human C-terminal domain (FIG. 1).
(§6) For determining the precise kinetic properties of 63N-hC, 64N-hC, 65N-hC and SAN-hC, the genes encoding these enzymes were sub-cloned into a pET14b expression vector and expressed in C41 E. coli cells. The purified clones were tested for their L-asparaginase activity (Table 4). E. coli L-asparaginase ansB was also included in order to compare the clones to an L-asparaginase approved for cancer therapy. […] Importantly, the kobs@50 μM values for the humanized clones were also in this range, being 17 sec^−1, 10 sec^−1, 17 sec^−1 and 6 sec^−1 for clones 63N-hC, 64N-hC, 65N-hC and SAN-hC, respectively.

[10] = test system: 63N-hC, shuffled hASNase1/gpASNase1 clone #63 with human C-terminal domain, SEQ ID NO:39; experiment: as above; type: biochemical, human / guinea pig; conditions: pH 7.5, 37° C.
Method: as §2, §5, §6

[11] = test system: SAN-hC, shuffled hASNase1/gpASNase1 clone #SA with human C-terminal domain, SEQ ID NO:42; experiment: as above; type: biochemical, human / guinea pig; conditions: pH 7.5, 37° C.
Method: as §2, §5, §6

[12] = test system: 65N-hC, shuffled hASNase1/gpASNase1 clone #65 with human C-terminal domain, SEQ ID NO:41; experiment: as above; type: biochemical, human / guinea pig; conditions: pH 7.5, 37° C.
Method: as §2, §5, §6

[13] = test system: human L-asparaginase type I (hASNase1), SEQ ID NO:2; conditions: in words; Karamitros & Konrad (2014); Schalk, et al. (2014); cited from earlier work
[14] = target: T6, guinea pig L-asparaginase (GpA) variant GpA369-C198A + K225C + E340C, SEQ ID NO:55 (Cavia porcellus, UniProt H0W0T5, C198A/E340C/K225C); experiment: L-asparaginase activity, kobs at 2 mM Asn; type: biochemical
T6 construct: made in house
Method: as §2

[15] = target: T7, guinea pig L-asparaginase (GpA) variant GpA369-C198A + K225C + E340C + E49C, SEQ ID NO:56 (Cavia porcellus, UniProt H0W0T5, C198A/E340C/E49C/K225C); experiment: L-asparaginase activity, kobs at 2 mM Asn; type: biochemical
T7 construct: made in house
Method: as §2

[16] = target: T8, guinea pig L-asparaginase (GpA) variant GpA369-C198A + K225C, SEQ ID NO:54 (Cavia porcellus, UniProt H0W0T5, C198A/K225C); experiment: L-asparaginase activity, kobs at 2 mM Asn; type: biochemical
T8 construct: GpA369-C198A + K225C; 99.4%; 71.7%; 54; made in house
Method: as §2

[17] = target: T9, guinea pig L-asparaginase (GpA) variant GpA369-C198A, SEQ ID NO:51 (Cavia porcellus, UniProt H0W0T5, C198A); experiment: L-asparaginase activity, kobs at 2 mM Asn; type: biochemical
T9 construct: made in house
Method: as §2

[18] = target: T10, guinea pig L-asparaginase (GpA) variant GpA369, residues 1-369, SEQ ID NO:5 (Cavia porcellus, UniProt H0W0T5); experiment: L-asparaginase activity, kobs at 2 mM Asn; type: biochemical
T10 construct: GpA369; 1-369; SUMO (cleaved yes); made in house
Method: as §2

[19] = test system: guinea pig L-asparaginase (gpASNase1, GpA), wild type, SEQ ID NO:1; conditions: Schalk, et al. (2014), cited from earlier work
[20] = test system: E. coli L-asparaginase iiiA; conditions: in words; cited from earlier work
[21] = substrate: NC(=O)C[C@H](N)C(=O)O; experiment: L-asparaginase kinetics, NADH-dependent enzyme-coupled assay; type: biochemical, E. coli; conditions: other: pH 7.5, 37° C., 3 nM enzyme
Method: as §2

human L-asparaginase 1 (hASNase1), wild type, SEQ ID NO:2, sequence (Q86U10 whole entry): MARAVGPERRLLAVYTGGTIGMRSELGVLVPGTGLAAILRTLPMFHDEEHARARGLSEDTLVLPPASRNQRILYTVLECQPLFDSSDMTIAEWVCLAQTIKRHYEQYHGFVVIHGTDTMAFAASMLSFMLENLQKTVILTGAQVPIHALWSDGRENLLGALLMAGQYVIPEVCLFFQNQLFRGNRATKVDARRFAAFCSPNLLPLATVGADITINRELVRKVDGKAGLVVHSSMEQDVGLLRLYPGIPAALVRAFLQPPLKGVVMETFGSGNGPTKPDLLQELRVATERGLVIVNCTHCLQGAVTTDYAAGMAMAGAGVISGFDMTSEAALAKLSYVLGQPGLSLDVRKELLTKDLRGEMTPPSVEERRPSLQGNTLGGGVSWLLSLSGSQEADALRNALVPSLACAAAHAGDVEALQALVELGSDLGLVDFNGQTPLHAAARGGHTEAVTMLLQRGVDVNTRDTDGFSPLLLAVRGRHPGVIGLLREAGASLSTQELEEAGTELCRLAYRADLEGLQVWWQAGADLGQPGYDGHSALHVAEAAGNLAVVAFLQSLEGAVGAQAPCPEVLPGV
T7 sequence (H0W0T5 1-369 E49C/C198A/K225C/E340C): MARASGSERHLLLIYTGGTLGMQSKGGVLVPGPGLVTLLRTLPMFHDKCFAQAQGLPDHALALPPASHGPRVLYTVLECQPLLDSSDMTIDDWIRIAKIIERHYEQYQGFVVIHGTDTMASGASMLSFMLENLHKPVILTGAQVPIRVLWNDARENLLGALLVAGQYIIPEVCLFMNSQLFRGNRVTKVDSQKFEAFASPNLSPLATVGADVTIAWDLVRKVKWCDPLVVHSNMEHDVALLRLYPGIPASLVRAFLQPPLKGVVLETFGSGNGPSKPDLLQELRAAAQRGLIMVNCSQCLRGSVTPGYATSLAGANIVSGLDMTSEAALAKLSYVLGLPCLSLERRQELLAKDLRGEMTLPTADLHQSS
T6 sequence (H0W0T5 1-369 C198A/K225C/E340C): as the sequence (H0W0T5 1-369 E49C/C198A/K225C/E340C) above, with C49E counted along it
T3 sequence (H0W0T5 1-369 C198A): as the sequence (H0W0T5 1-369 E49C/C198A/K225C/E340C) above, with C49E, C225K, C340E counted along it
T1 sequence (H0W0T5 1-369 C198A): as the sequence (H0W0T5 1-369 E49C/C198A/K225C/E340C) above, with C49E, C225K, C340E counted along it
T2 sequence (H0W0T5 1-369 C198A): as the sequence (H0W0T5 1-369 E49C/C198A/K225C/E340C) above, with C49E, C225K, C340E counted along it
T9 sequence (H0W0T5 1-369 C198A): as the sequence (H0W0T5 1-369 E49C/C198A/K225C/E340C) above, with C49E, C225K, C340E counted along it
T8 sequence (H0W0T5 1-369 C198A/K225C): as the sequence (H0W0T5 1-369 E49C/C198A/K225C/E340C) above, with C49E, C340E counted along it

NC(=O)C[C@H](N)C(=O)O [Asn, L-asparagine]
kcat/Km [1]: 0.004 sec^−1μM^−1 | Km ([1]; 50 nM enzyme): 3800 ± 120 µM | kcat ([1]; 50 nM enzyme): 14 ± 0.5 s⁻¹ | kobs @50 μM ([2]; 50 μM Asn): 14 ± 1 s⁻¹ | kcat/Km [2]: 0.7 sec^−1μM^−1 | Km ([2]; 10 nM enzyme): 35 µM | kcat ([2]; 10 nM enzyme): 24 ± 1 s⁻¹ | kobs at 2 mM ASN [3]: 83.7 s⁻¹ | kobs at 2 mM ASN [4]: 76.5 s⁻¹ | kobs at 2 mM ASN [5]: 83.3 s⁻¹ | kobs @50 μM [6]: 41 ± 0.3 s⁻¹ | kcat ([7]; Hill-equation (n = 2.1), pH 7.5, 37° C., 50 nM enzyme): 17 ± 0.8 s⁻¹ | Hill coefficient n ([7]; Hill-equation fit): *Kinetic parameters using the Hill-equation (n = 2.1) | kobs @50 μM ([8]; 50 μM Asn, pH 7.5, 37° C.): 20 s⁻¹ and 20 ± 1 s⁻¹ | kobs at 2 mM ASN ([8]; 2 mM Asn, full length GpA): 41 s⁻¹ | Km ([8]; pH 7.5, 37° C., 10 nM enzyme): 50 ± 7 µM | kcat ([8]; pH 7.5, 37° C., 10 nM enzyme): 41 ± 2 s⁻¹ | kobs @50 μM ([9]; 50 μM Asn): 10 s⁻¹ and 10 ± 1 s⁻¹ | kcat/Km [9]: 0.3 sec^−1μM^−1 | Km ([9]; 10 nM enzyme): 202 ± 17 µM | kcat ([9]; 10 nM enzyme): 60 ± 2 s⁻¹ | kobs @50 μM ([10]; 50 μM Asn): 17 s⁻¹ and 17 ± 0.5 s⁻¹ | kcat/Km [10]: 0.7 sec^−1μM^−1 | Km ([10]; 10 nM enzyme): 47 µM | kcat ([10]; 10 nM enzyme): 32 ± 0.6 s⁻¹ | kobs @50 μM ([11]; 50 μM Asn): 6 s⁻¹ and 6 ± 1 s⁻¹ | kcat/Km [11]: 0.2 sec^−1μM^−1 | Km ([11]; 10 nM enzyme): 165 µM | kcat ([11]; 10 nM enzyme): 32 ± 2 s⁻¹ | kobs @50 μM ([12]; 50 μM Asn): 17 s⁻¹ and 17 ± 1 s⁻¹ | kcat/Km [12]: 0.5 sec^−1μM^−1 | Km ([12]; 10 nM enzyme): 74 µM | kcat ([12]; 10 nM enzyme): 40 ± 1 s⁻¹ | Km for Asn [13]: in the millimolar range | kobs at 2 mM ASN [14]: 42.4 s⁻¹ | kobs at 2 mM ASN [15]: 41.6 s⁻¹ | kobs at 2 mM ASN [16]: 41.4 s⁻¹ | kobs at 2 mM ASN [17]: 43.3 s⁻¹ | kobs at 2 mM ASN [18]: 44 s⁻¹ | reaction rate (kcat) [19]: approximately 39 s^−1 | Km for Asn ([19]; in words): in the micromolar range | Km ([19]; read-out: Km for Asn): 58 µM | Km value for Asn [20]: very high

B1: E. coli L-asparaginase ansB (type II) (Escherichia coli K-12) (protein)
chain: LPNITILATGGTIAGGGDSATKSNYTVGKVGVENLVNAVPQLKDIANVKGEQVVNIGSQDMNDNVWLTLAKKINTDCDKTDGFVITHGTDTMEETAYFLDLTVKCDKPVVMVGAMRPSTSMSADGPFNLYNAVVTAADKASANRGVLVVMNDTVLDGRDVTKTNTTDVATFKSVNYGPLGYIHNGKIDYQRTPARKHTSDTPFDVSKLNELPKVGIVYNYANASDLPAKALVDAGYDGIVSAGVGNGNLYKSVFDTLATAAKTGTAVVRSSRVPTGATTQDAEVDDAKYGFVASGTLNPQKARVLLQLALTQTKDPQQIQQIFNQY
notes: made in house
Km [21]: 11 ± 1 µM | kcat [21]: 48 ± 1 s⁻¹ | kcat/Km [21]: 4.4e+06 M⁻¹ s⁻¹
